In data set [1] the test system is STZ-treated rats with neuropathy. In words: Mortality and adverse effects during chronic oral treatment. Type of data set: in vivo. Particulars: rat, in vivo, po. As to the method:
(§1) Three animals per cage were housed for the experiment 2 (Fig. 3B). Rats were gently manipulated daily before undertaking the actual behavior tests. One week after adaptation, the Randl-Stellito (R–S) test, cold plate test (CPT), and formalin tests (FT) were performed at baseline. After that, the diabetes model was made with 48 rats. Twelve animals served as controls. Body weight (BW), coat score (CS), CPT, R–S, and FT were evaluated on day 28th post-STZ, and after that, rats were distributed into the treatment groups as follows. • C-Veh – Controls, vehiculum treatment (n = 12) • NP-Veh – STZ-treated rats with neuropathy, vehiculum treatment (n = 12) • NP-KB-R7943 – 5 mg - STZ-treated rats, with neuropathy, KB-R7943 5 mg/kg treatment (n = 12) • NP-KB-R7943 – 10 mg – STZ-treated rats, with neuropathy, KB-R7943 10 mg/kg (n = 12) • NP-AMT – 10 mg - STZ-treated rats, with neuropathy, amitriptyline 10 mg/kg (n = 12).
OraPlus was used as a vehiculum for gavage (16 gauge feeding tube 10 ml/kg) in all rats. KB-R7943 in two doses (5 or 10 mg/kg) or amitriptyline 10 mg/kg was applied once daily until day 49. Behavior tests were performed […] after the oral gavage of the corresponding day, in the afternoon, starting from 2 p.m. […] On day 41, an FST was performed, and at 2 p.m., rats were placed individually for 24 h to assess spontaneous physical activity. […]

The next data set relates to NCX3. Also noted: method as in PMID 9688596. Particulars: cited from earlier work.
The subject of data set [2] is STZ-treated rats with neuropathy. In words: Coat state score. Format: in vivo, rat. To be noted: chronic p.o. treatment from day 28, day 42. As to the method: (§2) On the day of diabetic state induction, rats were deprived of food for 6 h (from 8 a.m. to 2 p.m.). A single i.p. injection was applied with 55 mg/kg STZ in the ice-cold citrate buffer (0.1 M pH 4.4). The observed polydipsia, polyuria, reduced thriving with lower body weight, and poor coating appearance indirectly indicated the development of diabetes. On day 28, after 6 h of fasting, blood glucose was measured with an Xpress Statstrip Glucometer (Nova Biomedical Corporation, Waltham, MA, USA) from the tail vein. A cut-off value of blood glucose >13 mmol/l was adopted. […] Controls were once i.p. injected with ice-cold citrate buffer 0.1 M pH 4.4 only.
as §1, with “Rats were gently manipulated daily before undertaking the actual behavior tests. One week after adaptation, the Randl-Stellito (R–S) test, cold plate test (CPT), and formalin tests (FT) were performed at baseline. After that, the diabetes model was made with 48 rats. Twelve animals served as controls.” left out, “12). […]” for “12).”
Coat state, water consumption, and body weight were evaluated weakly. […] Water consumption was measured per cage. […]

The test system is the same in data set [3]. In words: Forced swim test (FST). Type of data set: in vivo, rat. To be noted: 10 mg/kg p.o. once daily from day 28, test on day 41, 5-min test. The procedure: as §2
as §1, with “One week after adaptation, the Randl-Stellito (R–S) test, cold plate test (CPT), and formalin tests (FT) were performed at baseline. After that, the diabetes model was made with 48 rats. Twelve animals served as controls.” left out, “12). […]” for “12).”

Data set [4] shares this test system. In words: 24-hour spontaneous physical activity. Type of data set: in vivo, rat. To be noted: 5 mg/kg p.o. once daily from day 28, from day 41. As to the method: as §2
as §1, with “One week after adaptation, the Randl-Stellito (R–S) test, cold plate test (CPT), and formalin tests (FT) were performed at baseline. After that, the diabetes model was made with 48 rats. Twelve animals served as controls.” left out, “12). […]” for “12).”

Data set [5] has the same test system. The data set can be described thus: Formalin test (0.5% formalin). Type of data set: in vivo, rat. The procedure:
as §2, §1
OraPlus was used as a vehiculum for gavage (16 gauge feeding tube 10 ml/kg) in all rats. KB-R7943 in two doses (5 or 10 mg/kg) or amitriptyline 10 mg/kg was applied once daily until day 49. Behavior tests were performed […] after the oral gavage of the corresponding day, in the afternoon, starting from 2 p.m. […] On day 41, an FST was performed, and at 2 p.m., rats were placed individually for 24 h to assess spontaneous physical activity. After that, on day 42, the same battery of the tests as on day 28 were reassessed.
The formalin test was performed 1 h after the R–S test to decrease the interaction with the mechanical stimulus from the previous test. For the same reason, the left hind paws were injected. A needle (U-100 Insulin Syringe, Beckton and Dickinson, Dublin, Ireland) was used. A low-dose intraplantar injection of formalin 50 mcl 0.5% was done, and rats were placed in individual transparent cases for observation. Two independent observers measured the time spent licking or biting the injected paw, and the first (0–5 min) and the second post-injection phase (20–30 min) were reported in sec.

Structures are written as SMILES.

As to `N=C(N)SCCc1ccc(OCc2ccc([N+](=O)[O-])cc2)cc1` [KB-R7943, [(2-{4-[(4-nitrophenyl)methoxy]phenyl}ethyl)sulfanyl]methanimidamide], in data set [1], the mortality during treatment entry is reported as “No one rat died”. Further, the “potency as inhibitor of NCX3 relative to NCX1 and NCX2” value with NCX3 was “three-fold more potent inhibitor of NCX3 than NCX1 and NCX2”. Moreover, in data set [2], the “effect on coat score” value is recorded as “ameliorated”. Moreover, in data set [3], the “immobility time in FST” value came to 131.67 ± 29.80 s. Moreover, the “24-h spontaneous physical activity” value in data set [4] is reported as 1705.92 ± 237.74 beam breaks. Further, the “effect on formalin test first phase (0–5 min)” value in data set [5] (5 mg/kg p.o. once daily, vs. 10 mg/kg groups) is reported as “weaker effect”; in data set [5] (10 mg/kg p.o. once daily, vs. NP-Veh), “attenuated”. Further, the “effect on formalin test second phase (20–30 min)” value in data set [5] (amitriptyline 10 mg/kg, KB-R7943 5 and 10 mg/kg p.o. once daily, vs. NPveh, dose-dependent) was “attenuated”.

Values taken from paper PMC10958225, “Therapeutic potential of orally applied KB-R7943 in streptozotocin-induced neuropathy in rats” (Heliyon, 2024).
